Results: patent EP4671239A1, “ARYL SUBSTITUENT-CONTAINING DEGRADATION AGENT FOR CDK12/13, PREPARATION METHOD THEREFOR, AND PHARMACEUTICAL COMPOSITION AND USE THEREOF” (Shanghai Institute of Organic Chemistry, Chinese Academy of …, priority 2023, dated 2024)
pIC50: −log10 of the molar value. Where two headings read alike, the source gives them in different places.

Experiments:
CDK12 and CDK13 proteins [1] = experiment: Degradation activity on CDK12/13 in 22RV1 cells (Western Blot); format: cell-based; conditions: 22RV1 cells
Method: Experimental methods: The cell line, 22RV1 cell line was purchased from the American Type Culture Collection (ATCC). Conventional Western Blot was used for detection as follows: 22RV1 cells were seeded in a certain number in a 12-well plate, and cultured overnight in an incubator in an adherent manner. […] The cells were lysed with a lysis buffer, and samples were collected. Then, an appropriate amount of the samples was taken for SDS-PAGE electrophoresis. After electrophoresis, the proteins were transferred to nitrocellulose membranes using a semi-dry electro-transfer system. The nitrocellulose membrane was placed in a blocking solution (5% skim milk powder diluted in TBS containing 0.1% Tween 20) and blocked at room temperature for 2 h. The membranes were then placed in a primary antibody solution (1: 1000 diluted in TBS containing 0.1% Tween 20), respectively, and incubated at 4°C overnight. The cells were washed three times with TBS containing 0.1% Tween 20, each time for 15 min. The membrane was placed in a secondary antibody solution (horseradish peroxidase-labeled goat anti-rabbit IgG, diluted at 1:1000 in TBS containing 0.1% Tween 20) and reacted at room temperature for 1 h. After washing the membrane three times as above, the membrane was developed with ECL plus reagent and photographed using Amersham Imager 600 system.

[2] = tested on: phosphorylation of serine at position 2 (phoSer2) of the C-terminal domain of RNA polymeraseII (RNA Pol II); experiment: Phosphorylation of Ser2 of the RNA Pol II C-terminal domain in 22RV1 cells (Western Blot); format: cell-based; conditions: different concentrations (FIG. 4B)
Method: Experimental methods: The cell line, 22RV1 cell line was purchased from the American Type Culture Collection (ATCC). Conventional Western Blot was used for detection as follows: 22RV1 cells were seeded in a certain number in a 12-well plate, and cultured overnight in an incubator in an adherent manner. Then, a certain concentration of compounds was added to act for 6 hours. The cells were lysed with a lysis buffer, and samples were collected. Then, an appropriate amount of the samples was taken for SDS-PAGE electrophoresis. After electrophoresis, the proteins were transferred to nitrocellulose membranes using a semi-dry electro-transfer system. The nitrocellulose membrane was placed in a blocking solution (5% skim milk powder diluted in TBS containing 0.1% Tween 20) and blocked at room temperature for 2 h. The membranes were then placed in a primary antibody solution (1: 1000 diluted in TBS containing 0.1% Tween 20), respectively, and incubated at 4°C overnight. The cells were washed three times with TBS containing 0.1% Tween 20, each time for 15 min. The membrane was placed in a secondary antibody solution (horseradish peroxidase-labeled goat anti-rabbit IgG, diluted at 1:1000 in TBS containing 0.1% Tween 20) and reacted at room temperature for 1 h. […]

[3] = Pharmacokinetics and bioavailability test in rats (Example 60); format: in vivo; conditions: SD rats
Method: (§1) Pharmacokinetics and bioavailability tests in rats. SD rats were given a single oral (10 mg/kg), intravenous (2.5 mg/kg) and intraperitoneal (10 mg/kg) dose, followed by animal blood sample collection at appropriate time points. Heparin was added for anticoagulation, and the samples were centrifuged at 8000 rpm for 6 min. The supernatant was collected and stored at -20°C for HPLC-MS analysis. The blood samples underwent protein precipitation with acetonitrile at 12 000 rpm * 10 min, and the supernatant was used for HPCL-MS analysis. The data underwent parameter fitting with DAS2.0, to obtain compartmental model and non-compartmental model parameters, respectively. The oral bioavailability of the compounds was calculated based on the area under the plasma concentration-time curve (AUC) data. […] Table 2. Pharmacokinetic experimental results of compounds YJZ9069 and YJZ1102

CDK12 and CDK13 proteins [4] = experiment: Degradation activity on CDK12/13 in MDA-MB-231 cells (Western Blot); format: cell-based; conditions: for degradation of CDK12 and CDK13 protein levels in cells: 0.1µM or 0.3µM, 15 h, WB (FIG. 1); for degradation of CDK12 and CDK13 proteins: 1 µM, 15 hours
Method: (§2) Experimental methods: The cell line MDA-MB-231 was purchased from the American Type Culture Collection (ATCC). Conventional Western Blot was used for detection, as follows: MDA-MB-231 cells were seeded at a density of 2 x 10^5/mL in a 12-well plate, with 1 mL per well, and cultured overnight in an incubator in an adherent manner. Then, a certain concentration of compounds was added to act for 15 h. The cells were lysed with a lysis buffer, and protein samples were collected. An appropriate amount of the sample was taken for SDS-PAGE electrophoresis. After electrophoresis, the protein was transferred to a polyvinylidene fluoride (PVDF) membrane using a wet electro-transfer system. The PVDF membrane after electro-transfer was cut into several required strips, which were then placed in a blocking solution (5% skim milk powder diluted in TBS containing 0.1% Tween 20) and blocked at room temperature for 1.5 h. A primary antibody solution was prepared by diluting a primary antibody against the corresponding target protein in TBS containing 0.1% Tween 20 according to the dilution requirements of different antibodies, such as 1:1000 (CST), 1:3000 (Proteintech, Bethyl), and 1:200 (Santacruz). The blocked membrane was placed in the corresponding primary antibody solution and incubated at 4°C for 12-14 h. Then, the cells were washed three times with TBS containing 0.1% Tween 20, each time for 5 min. After washing, the membrane was placed in a secondary antibody solution (horseradish peroxidase-labeled goat anti-rabbit IgG, diluted at 1:2000 in TBS containing 0.1% Tween 20) and reacted at room temperature for 2 h. After washing the membrane three times as above, the membrane was developed with StarSignal plus reagent (GenStar®) and Omni-ECL reagent (Yazyme®), and photographed with Amersham Imager 800 system.

Cyclin K = experiment: Degradation of partner protein Cyclin K in MDA-MB-231 cells (Western Blot); format: cell-based; conditions: for time dependence of degradation of Cyclin K: WB (FIG. 2); for degradation of Cyclin K protein: after 15 hours
Method: as §2

[5] = tested on: triple negative breast cancer cells MDA-MB-231; experiment: Proliferation-inhibiting activity on MDA-MB-231 cells (Cell Counting Kit-8); format: cell-based; conditions: Homo sapiens, 120 h; MDA-MB-231 cell line, 5 days, cck-8 (FIG. 3)
Method: The cell proliferation-inhibiting activity of the compounds was determined using Cell Counting Kit-8 Cell Viability Assay (Selleck.cn). The cells were seeded into a 384-well plate (CORNING® PS 3701) containing the corresponding culture medium and incubated in an incubator at 37°C with 5% CO2. After overnight incubation, a high-concentration stock solution of each compound to be tested was prepared; the compound was added to the 384-well plate according to a concentration gradient using an Echo® 650 Liquid Handler (LABCYTE®). After administration, the cell plate was placed in an incubator at 37°C with 5% CO2 and incubated for 5 days. Then, 5 µL of cck-8 reagent was added to each well of the 384-well plate using MULTIDROP® (Thermo Scientific™), and the plate was returned to the incubator for incubation for 1.5-2 h. After incubation, the plate was removed and centrifuged to remove bubbles. The absorbance of each well at 450 nm and 650 nm was obtained using EnVision® (PerkinElmer®). GraphPad Prism software (GraphPad Software Inc.) was used to process and analyze the data.

[6] = Pharmacokinetics and bioavailability test in rats (Example 57); format: in vivo; conditions: SD rats; for AUC(0-inf) / Tmax / MRT last / MRT inf: rat, plasma; for MRT last: read-out: MRT(0-t); for MRT inf: read-out: MRT(0-∞)
Method: as §1, with “Table 1.” for “Table 2.”, “of compound zlc-4-93” for “of compounds YJZ9069 and YJZ1102”

CDK12 and CDK13 proteins [7] = experiment: Degradation activity on CDK12/13 in MDA-MB-231 cells (Western Blot); format: cell-based; conditions: WB (FIG. 2A)

SMILES: O=C1CCC(N2C(=O)c3cccc(OCC(=O)N4CCN(c5ccc(N(C(=O)NCc6ccccc6)[C@H]6CC[C@H](Nc7ncc8ccccc8n7)CC6)cc5)CC4)c3C2=O)C(=O)N1 (stereo partly shown) [YJZ9069]
- degradation of CDK12 and CDK13 proteins (CDK12 and CDK13 proteins [1]; 100 nM, 6 h (FIG. 5)): almost completely degrade
- degradation of CDK12 and CDK13 proteins (CDK12 and CDK13 proteins [1]; 0.5 µM, 15 hours): almost completely degraded
- degradation of CDK12 and CDK13 protein levels in cells (CDK12 and CDK13 proteins [1]; 500 nM, 6 hours, WB (FIG. 4)): effectively degrade
- dose dependence of degradation of CDK12 and CDK13 proteins (CDK12 and CDK13 proteins [1]; different concentrations, 6 h (FIG. 4B, FIG. 5)): dose-dependent manner
- phosphorylation of serine at position 2 (phoSer2) of RNA Pol II CTD [2]: inhibited in a dose-dependent manner
- F ([3]; PO 10 mg/kg, bioavailability calculated from AUC): 5.04%
- Cmax ([3]; rat, in vivo, IV 2.5 mg/kg): 3510 ng/mL
- Tmax ([3]; rat, in vivo, IV 2.5 mg/kg): 0.08 h
- clearance ([3]; rat, in vivo, IV 2.5 mg/kg): 14.1 mL/min/kg
- half-life ([3]; rat, in vivo, IV 2.5 mg/kg): 4.39 h
- Cmax ([3]; rat, in vivo, PO 10 mg/kg): 121 ng/mL
- Tmax ([3]; rat, in vivo, PO 10 mg/kg): 4 h

SMILES: N#Cc1ccc(N[C@H]2CC[C@H](N(C(=O)NCc3ccccc3)c3ccc(N4CCN(C5CCN(c6cc7c(cc6F)C(=O)N(C6CCC(=O)NC6=O)C7=O)CC5)CC4)cc3)CC2)nc1 (stereo partly shown) [ZLC4-91]
- degradation of CDK12 and CDK13 protein levels in cells (CDK12 and CDK13 proteins [4]): effectively degrade
- degradation of CDK12 and CDK13 proteins (CDK12 and CDK13 proteins [4]): almost completely degraded
- time dependence of degradation of Cyclin K (Cyclin K): time-dependent degradation effect
- degradation of Cyclin K protein (Cyclin K): almost completely degraded
- pIC50 [5]: 6.21
- F ([6]; Oral 10 mg/kg, bioavailability calculated from AUC): 46.80%
- oral pharmacokinetic properties ([6]; summary in words of Table 1): excellent
- AUC(0-inf) ([6]; iv, i.v. 2.5 mg/kg): 6880 ng·h/mL
- Tmax ([6]; iv, i.v. 2.5 mg/kg): 0.08 h
- MRT last ([6]; iv, i.v. 2.5 mg/kg): 2.2 h
- MRT inf ([6]; iv, i.v. 2.5 mg/kg): 2.32 h
- AUC(0-inf) ([6]; Oral 10 mg/kg): 12800 ng·h/mL
- Tmax ([6]; Oral 10 mg/kg): 4.67 h
- MRT last ([6]; Oral 10 mg/kg): 6.09 h
- MRT inf ([6]; Oral 10 mg/kg): 6.21 h
- time dependence of degradation of CDK12 and CDK13 proteins (CDK12 and CDK13 proteins [7]): time-dependent manner

SMILES: N#Cc1ccc(N[C@H]2CC[C@H](N(C(=O)NCc3ccccc3)c3ccc(N4CCC(N5CCN(c6ccc7c(c6)C(=O)N(C6CCC(=O)NC6=O)C7=O)CC5)CC4)cc3)CC2)nc1 (stereo partly shown) [ZLC5-11]
- degradation of CDK12 and CDK13 protein levels in cells (CDK12 and CDK13 proteins [4]): effectively degrade
- degradation of CDK12 and CDK13 proteins (CDK12 and CDK13 proteins [4]): almost completely degraded
- time dependence of degradation of Cyclin K (Cyclin K): time-dependent degradation effect
- degradation of Cyclin K protein (Cyclin K): almost completely degraded
- time dependence of degradation of CDK12 and CDK13 proteins (CDK12 and CDK13 proteins [7]): time-dependent manner

SMILES: N#Cc1ccc(N[C@H]2CC[C@H](N(C(=O)NCc3ccccc3)c3ccc(N4CCN(C(=O)C5CCN(c6ccc7c(c6)C(=O)N(C6CCC(=O)NC6=O)C7=O)CC5)CC4)cc3)CC2)nc1 (stereo partly shown) [ZLC5-31]
- degradation of CDK12 and CDK13 protein levels in cells (CDK12 and CDK13 proteins [4]): effectively degrade
- pIC50 [5]: 6.41

SMILES: N#Cc1ccc(N[C@H]2CC[C@H](N(C(=O)NCc3ccccc3)c3ccc(N4CCN(C[C@H]5CCN(c6ccc7c(c6)C(=O)N(C6CCC(=O)NC6=O)C7=O)C5)CC4)cc3)CC2)nc1 (stereo partly shown) [ZLC6-1]
- degradation of CDK12 and CDK13 protein levels in cells (CDK12 and CDK13 proteins [4]): effectively degrade
- pIC50 [5]: 6.54
